Measured values from patent US8853238B2, “Fused heterocyclic compound and use thereof for pest control” (Sumitomo Chemical Company, Limited, priority 2010, dated 2014).

Columns and labels:
Assay type in all cases: in vivo
[1] = system: Adoxophyes orana fasciata; test: Test Example 8: spray on apple tree, release of Adoxophyes orana fasciata; details: in Malus domestica, 168 h; 500 ppm active ingredient; apple tree sprayed with 20 mL/cup; 60 first-instar Adoxophyes orana fasciata; after 7 days; read-out: Death rate
Protocol: On the other hand, an apple tree was planted in a plastic cup, and grown until the seventh-eighth leaf was spread. The apple tree was sprayed with 20 mL/cup of each of the test spray solution. After the test solution was dried, 60 first-instar Adoxophyes orana fasciata were released, and the cup was covered with a plastic cup upside-down which the bottom was cut off and a filter paper was put thereon. After 7 days, the number of living insects was counted, and a death rate was calculated according to the following equation: Death rate (%)=(Number of dead insects/Number of tested insects)×100

Aphis gossypii [2] = test: Test Example 2: root immersion of cucumber seedling, then inoculation with Aphis gossypii; details: 168 h; 500 ppm active ingredient; cucumber root part immersed in 5 ml; 30 Aphis gossypii inoculated one day after treatment; examined after further seven days
Protocol: A root part of a cucumber seedling (the first true leaf stage) from which soil had been washed off was immersed in 5 ml of each of the diluted solutions, and one day after treatment, on the cucumber leaf surface was inoculated with 30 Aphis gossypii (whole stage). After further seven days, the number of insect of living Aphis gossypii parasitized on the leaves of the cucumber was examined, and a control value was calculated according to the following equation: Control value (%)={1−(Cb×Tai)/(Cai×Tb))×100 wherein symbols represent as follows: Cb: the number of insects in a non-treated section before treatment, Cai: the number of insects in a non-treated section in observation, Tb: the number of insects in a treated-section before treatment, Tai: the number of insects in a treated-section in observation; wherein the non-treated section represents a section where the test diluted solution prepared by diluting the formulation without the present compound in Formulation Example 5 with the same amount of water as in the treated-section was used.

Nilaparvata lugens [3] = test: Test Example 4: spray on rice seedling, release of Nilaparvata lugens larvae; details: 144 h; 500 ppm active ingredient; rice seedling sprayed with 10 ml; third-fourth instar larvae of Nilaparvata lugens; after 6 days at 25° C.; read-out: Control value
Bemisia tabaci = test: Test Example 6: spray on tomato seedling with Bemisia tabaci instar larvae; details: 168 h; 500 ppm active ingredient; 20 ml/cup sprayed on tomato seedling with hatched Bemisia tabaci instar larvae; after 7 days at 25° C.
Protocol: On the other hand, Bemisia tabaci adult was released on a tomato seedling (the third true leaf stage) planted in a polyethylene cup, and made to lay eggs for about 72 hours. The tomato seedling was kept in a greenhouse for 8 days. When instar larvae hatched from the eggs, the above test spray solution was sprayed in the amount of 20 ml/cup. The cup was kept in a greenhouse at 25° C. After the keeping for 7 days, the number of surviving instar larvae on the tomato leaves was examined, and a control value was calculated according to the following equation: Control value (%)={1−(Cb×Tai)/(Cai×Tb))×100 wherein symbols represent as follows: Cb: the number of insects in a non-treated section before treatment, Cai: the number of insects in a non-treated section in observation, Tb: the number of insects in a treated-section before treatment, Tai: the number of insects in a treated-section in observation; wherein the non-treated section represents a section where the test spray solution prepared by diluting the formulation without the present compound in Formulation Example 5 with the same amount of water as in the treated-section was sprayed.

Nilaparvata lugens [4] = test: Test Example 5: drench at foot of rice seedling, release of Nilaparvata lugens larvae; details: soil, 144 h; 500 ppm active ingredient; rice seedling drenched at its foot with 5 ml, kept 7 days; twenty third-fourth instar larvae of Nilaparvata lugens; examined after 6 days
Protocol: On the other hand, a rice seedling (2 weeks after sowing, the second leaf stage) planted in a plastic cup was drenched at its foot with 5 ml of each of the diluted solutions, and kept in a greenhouse of 25° C. for 7 days. Twenty third-fourth instar larvae of Nilaparvata lugens were released, and further kept in the greenhouse for 6 days, then the number of insect of living Nilaparvata lugens parasitized on the rice was examined, and a control value was calculated according to the following equation: Control value (%)={1−(Cb×Tai)/(Cai×Tb))×100 wherein symbols represent as follows: Cb: the number of insects in a non-treated section before treatment, Cai: the number of insects in a non-treated section in observation, Tb: the number of insects in a treated-section before treatment, Tai: the number of insects in a treated-section in observation; wherein the non-treated section represents a section where the test diluted solution prepared by diluting the formulation without the present compound in Formulation Example 5 with the same amount of water as in the treated-section was used.

Aphis gossypii [5] = test: Test Example 1: spray on cucumber seedling inoculated with Aphis gossypii; details: topical, 144 h; 500 ppm active ingredient (Formulation Example 5 diluted with water); 20 ml sprayed on cucumber seedling with about 30 Aphis gossypii; six days after spraying
Protocol: On the other hand, on a cucumber seedling (the first true leaf stage) planted in a plastic cup was inoculated with about 30 Aphis gossypii, and leaving it for a day. Twenty ml of each of the above test spray solutions was sprayed on this seedling. Six days after spraying, the number of the surviving Aphis gossypii parasitized on the leaves of the cucumber was examined, and a control value was calculated according to the following equation: Control value (%)={1−(Cb×Tai)/(Cai×Tb))×100 wherein symbols represent as follows: Cb: the number of insects in a non-treated section before treatment, Cai: the number of insects in a non-treated section in observation, Tb: the number of insects in a treated-section before treatment, Tai: the number of insects in a treated-section in observation; wherein the non-treated section represents a section where the test spray solution prepared by diluting the formulation without the present compound in Formulation Example 5 with the same amount of water as in the treated-section was sprayed.

Structure (SMILES)	pest or weed control at 500 ppm [1] [%]	pest or weed control at 500 ppm (Aphis gossypii [2]) [%]	pest or weed control at 500 ppm (Aphis gossypii [5]) [%]	other results
C=CCS(=O)(=O)c1ccccc1-c1nc2cc(C(F)(F)F)cnc2n1C [Present Compound 11, 2-(2-allylsulfonylphenyl)-3-methyl-6-trifluoromethyl-3H-imidazo[4,5-b]pyridine]	≥ 90	–	–	–
CC(C)[S+]([O-])c1ccccc1-c1nc2cc(C(F)(F)F)cnc2n1C (stereo not drawn) [Present Compound 13, 2-(2-isopropylsulfinylphenyl)-3-methyl-6-trifluoromethyl-3H-imidazo[4,5-b]pyridine]	≥ 90	≥ 90	–	–
CC(C)S(=O)(=O)c1ccccc1-c1nc2cc(C(F)(F)F)cnc2n1C [Present Compound 14, 2-(2-isopropylsulfonylphenyl)-3-methyl-6-trifluoromethyl-3H-imidazo[4,5-b]pyridine]	≥ 90	≥ 90	–	pest or weed control at 500 ppm (Nilaparvata lugens [3]): ≥ 90%
CCSc1ccccc1-c1nc2cc(C(F)(F)F)cnc2n1CC [Present Compound 21, 3-ethyl-2-(2-ethylsulfanylphenyl)-6-trifluoromethyl-3H-imidazo[4,5-b]pyridine]	–	–	–	pest or weed control at 500 ppm (Bemisia tabaci): ≥ 90%; pest or weed control at 500 ppm (Nilaparvata lugens [3]): ≥ 90%
CCn1c(-c2ccccc2S(=O)(=O)CC)nc2cc(C(F)(F)F)cnc21 [Present Compound 23, 2-(2-ethylsulfonylphenyl)-3-ethyl-6-trifluoromethyl-3H-imidazo[4,5-b]pyridine]	≥ 90	–	–	–
CC[S+]([O-])c1ccccc1-c1nc2cc(C(F)(F)F)cnc2n1C(C)C (stereo not drawn) [Present Compound 28, 2-(2-ethylsulfinylphenyl)-3-isopropyl-6-trifluoromethyl-3H-imidazo[4,5-b]pyridine]	≥ 90	–	–	–
CCS(=O)(=O)c1ccccc1-c1nc2cc(C(F)(F)F)cnc2n1C(C)C [Present Compound 29, 2-(2-ethylsulfonylphenyl)-3-isopropyl-6-trifluoromethyl-3H-imidazo[4,5-b]pyridine]	≥ 90	–	–	–
CC[S+]([O-])c1ccccc1-c1nc2cc(C(F)(F)F)cnc2n1C1CC1 (stereo not drawn) [Present Compound 31, 3-cyclopropyl-2-(2-ethylsulfinylphenyl)-6-trifluoromethyl-3H-imidazo[4,5-b]pyridine]	≥ 90	–	–	–
CCS(=O)(=O)c1ccccc1-c1nc2cc(C(F)(F)F)cnc2n1COC [Present Compound 38, 2-(2-ethylsulfonylphenyl)-3-methoxymethyl-6-trifluoromethyl-3H-imidazo[4,5-b]pyridine]	–	–	–	pest or weed control at 500 ppm (Nilaparvata lugens [4]): ≥ 90%
CC[S+]([O-])c1ccccc1-c1nc2cc(I)cnc2n1C (stereo not drawn) [Present Compound 46, 2-(2-ethylsulfinylphenyl)-6-iodo-3-methyl-3H-imidazo[4,5-b]pyridine]	–	≥ 90	≥ 90	pest or weed control at 500 ppm (Nilaparvata lugens [3]): ≥ 90%
CC[S+]([O-])c1ccccc1-c1nc2cc(C#N)cnc2n1C (stereo not drawn) [Present Compound 49, 6-cyano-2-(2-ethylsulfinylphenyl)-3-methyl-3H-imidazo[4,5-b]pyridine]	–	–	–	pest or weed control at 500 ppm (Bemisia tabaci): ≥ 90%
CC[S+]([O-])c1ccccc1-c1nc2cc(C(F)F)cnc2n1C (stereo not drawn) [Present Compound 53, 6-difluoromethyl-2-(2-ethylsulfinylphenyl)-3-methyl-3H-imidazo[4,5-b]pyridine]	–	≥ 90	≥ 90	–
CCSc1ccccc1-c1nc2ncc(C(F)(F)F)cc2n1C [Present Compound 66, 2-(2-ethylsulfanylphenyl)-1-methyl-6-trifluoromethyl-1H-imidazo[4,5-b]pyridine]	–	≥ 90	≥ 90	–
CC[S+]([O-])c1ccccc1-c1nc2cc(C(F)(F)F)cc(Cl)c2n1C (stereo not drawn) [Present Compound 72, 7-chloro-2-(2-ethylsulfinylphenyl)-1-methyl-5-trifluoromethyl-1H-benzimidazole]	–	–	≥ 90	–
CC[S+]([O-])c1ccccc1-c1nc2cc(C(F)(F)F)cc(Br)c2n1C (stereo not drawn) [Present Compound 75, 7-bromo-2-(2-ethylsulfinylphenyl)-1-methyl-5-trifluoromethyl-1H-benzimidazole]	–	–	≥ 90	pest or weed control at 500 ppm (Bemisia tabaci): ≥ 90%
CCS(=O)(=O)c1ccccc1-c1nc2cc(C(F)(F)F)cnc2o1 [Present Compound 83, 2-(2-ethylsulfonylphenyl)-6-trifluoromethyloxazolo[5,4-b]pyridine]	–	≥ 90	–	pest or weed control at 500 ppm (Nilaparvata lugens [3]): ≥ 90%
CCSc1c(Cl)cccc1-c1nc2cc(C(F)(F)F)cnc2n1C [Present Compound 88, 2-(3-chloro-2-ethylsulfanylphenyl)-3-methyl-6-trifluoromethyl-3H-imidazo[4,5-b]pyridine]	–	≥ 90	–	pest or weed control at 500 ppm (Bemisia tabaci): ≥ 90%
CCSc1ccccc1-c1nc2ccc(C(F)(F)F)nc2n1C [Present Compound 151, 2-(2-ethylsulfanylphenyl)-3-methyl-5-trifluoromethyl-3H-imidazo[4,5-b]pyridine]	–	–	≥ 90	–
CCSc1ccccc1-c1nc2cc(C(F)(F)F)cnc2s1 [compound 183, 2-(2-ethylsulfanylphenyl)-6-(trifluoromethyl)thiazolo[5,4-b]pyridine]	–	–	≥ 90	–
CCS(=O)(=O)c1ccccc1-c1nc2cc(C(F)(F)F)cnc2s1 [compound 185, 2-(2-ethylsulfonylphenyl)-6-(trifluoromethyl)thiazolo[5,4-b]pyridine]	–	–	–	pest or weed control at 500 ppm (Nilaparvata lugens [4]): ≥ 90%
Cn1c(-c2ccccc2S(=O)(=O)CC(F)(F)F)nc2cc(C(F)(F)F)cnc21 [compound 188]	–	–	≥ 90	pest or weed control at 500 ppm (Bemisia tabaci): ≥ 90%; pest or weed control at 500 ppm (Nilaparvata lugens [3]): ≥ 90%
CCS(=O)(=O)c1ccccc1-c1nc2cc([S+]([O-])C(F)(F)F)cnc2n1C (stereo not drawn) [compound 214, 2-(2-ethylsulfonylphenyl)-6-trifluoromethylsulfinyl-3-methyl-3H-imidazo[4,5-b]pyridine]	–	–	–	pest or weed control at 500 ppm (Nilaparvata lugens [4]): ≥ 90%
CCS(=O)(=O)c1cc(S(F)(F)(F)(F)F)ccc1-c1nc2cc(C(F)(F)F)cnc2n1C [compound 343, 2-(2-ethylsulfonyl-4-(pentafluorosulphur)phenyl)-3-methyl-6-trifluoromethyl-3H-imidazo[4,5-b]pyridine]	–	–	≥ 90	pest or weed control at 500 ppm (Nilaparvata lugens [4]): ≥ 90%; pest or weed control at 500 ppm (Bemisia tabaci): ≥ 90%; pest or weed control at 500 ppm (Nilaparvata lugens [3]): ≥ 90%
